How the values were obtained:
cleaved Notch2 (NICD2) = assay: Western blot for cleaved, active Notch2 (NICD2) in cultured limb-bud derived MSCs; assay type: cell-based, mouse; settings: DAPT 1 um, cultured overnight, vs absence of DAPT
Description: Total protein was isolated from either whole mouse limb-bud tissue or cultured limb-bud derived MSCs using Golden lysis buffer. The cultured limb-bud derived MSCs were plated at the density of 6×10^6 cells in 10 cm dishes and cultured overnight in 10% FBS DMEM media both in the presence and absence of DAPT (1 um). Protein samples (˜100 μg) from each isolation were subsequently separated on 10% SDS-polyacrylamide and transferred to a PVDF membrane. NICD1 and NICD2 cleaved proteins were detected using the bTAN 20 (Notch1) and C651.6DdHN (Notch2) primary antibodies (0.4 ug/ml) and then further probed with appropriate secondary antibody (1:3000). Anti-β-actin antibody (Sigma; St. Louis, Mo.) was used as a control for equal protein loading. Immunoblots were detected using Supersignal west femto maximum sensitivity substrate (Pierce; Rockford, Ill.).
To determine which Notch receptor is active in the limb-bud mesenchyme, total protein was isolated from cultured MSCs in the presence and absence of the Notch inhibitor, N-(3,5-difluorophenylacetyl-L-alanyl)]-S-phenylglycine t-ButylEster (DAPT, Calbiochem; San Diego, Calif.), or directly from wild-type E11.5 whole limb-bud tissue, and performed western blot analyses using Notch1 and Notch2 antibodies that can detect the cleaved or active (NICD) form of the receptor. […]

limb-bud derived MSCs [1] = assay: Limb-bud MSC micromass chondrogenic differentiation (Alcian blue staining, real-time RT-PCR); assay type: cell-based, mouse
Description: (§1) Limb-bud derived MSCs were isolated from E11.5 CD1 mouse embryos as previously described (Zhang et al., Bone 34:809-17 (2004)). For chondrogenic differentiation, MSCs were seeded in micromass (1×10^5 cells in […]) in 12-well plates for 1.5 hours before adding standard media, media containing DAPT (1 μM), or media containing Hes1 shRNA lentivirus. Cells were cultured for a time-course of 6 hours, 3, 5, and 7 days prior to harvest for cartilage staining (1% Alcian blue/3% glacial acetic acid) or total RNA isolations. Limb-bud derived MSCs were also cultured in monolayer for 21 days and treated with either osteogenic (10 nM dexamethasone; 50 μM ascorbic acid; 10 mM β-glycerolphosphate) or adipogenic medium (Millipore; Billerica, Mass.) in the presence and absence of DAPT. Fixed MSCs were stained for osteoblastic differentiation using an alkaline phosphatase stain (nitro blue tetrazolium chloride/5-bromo-4-chloro-3-indolyhosphate P-toluidine salt) or adipogenic differentiation using an Oil Red-O staining solution (0.36%). Total RNA was isolated from monolayer cultures at day 21 for use in real-time RT-PCR analyses.
(§2) Embryonic limb-bud tissues or micromass cultures were frozen in liquid nitrogen and then homogenized in Trizol Reagent (Invitrogen; Carlsbad, Calif.) via rendering through a 25-gauge needle and syringe. Total cellular RNA was extracted following the manufacture's protocol. RNA was quantified using a NanoDrop spectrophotometer (NanoDrop; Wilmington, Del.) and equal concentrations of total RNA were pooled for synthesis of cDNA. Total RNA (1 μg) was reverse transcribed using the iScript™ cDNA synthesis kit (Bio-Rad; Hercules, Calif.) according to the manufacture's instructions. Reverse transcribed cDNA was analyzed by real-time RT-PCR with mouse-specific primers for: Sox9, Runx2, Col2a1, Agc1, Col1a1, Ap, Oc, Pparγ, Jagged1, Jagged2, Delta-like1, Delta-like3, Delta-like4, Notch1, Notch2, Notch3, Notch4, Hes1, Hes3, Hes5, Hes7, Hey1, Hey2, HeyL, and CyclinD1. Primers were designed using Applied Biosystems software (Applied Biosystems; Foster City, Calif.). Sequences are available upon request. DNA amplification was achieved using the SYBR® Green PCR Master Mix (Applied Biosystems; Foster City, Calif.) and the RotorGene real-time DNA amplification system (Corbett Research; Sydney, Australia). Gene expression was normalized to β-actin expression levels and then normalized to control samples.
To determine the role of Notch signaling in MSCs, Notch loss-of-function assays were performed on E11.5 limb-bud derived MSC cultures using the Notch inhibitor, DAPT. […] The effect of DAPT was also assessed on the expression of the chondrogenic markers Sox9, Col2a1, and Agc1 via real-time RT-PCR.

limb-bud derived MSCs [2] = assay: Limb-bud MSC osteogenic monolayer differentiation (alkaline phosphatase staining, real-time RT-PCR); assay type: cell-based, mouse; settings: DAPT 1 μM, 21 days
Description: as §1
as §2, with “Sequences are available upon request. DNA amplification was achieved using the SYBR® Green PCR Master Mix (Applied Biosystems; Foster City, Calif.) and the RotorGene real-time DNA amplification system (Corbett Research; Sydney, Australia). Gene expression was normalized to β-actin expression levels and then normalized to control samples.” left out

limb-bud derived MSCs [3] = assay: Limb-bud MSC adipogenic monolayer differentiation (Oil Red-O staining, real-time RT-PCR); assay type: cell-based, mouse; settings: DAPT 1 μM, 21 days
Description: as §1
as §2, with “Sequences are available upon request. DNA amplification was achieved using the SYBR® Green PCR Master Mix (Applied Biosystems; Foster City, Calif.) and the RotorGene real-time DNA amplification system (Corbett Research; Sydney, Australia). Gene expression was normalized to β-actin expression levels and then normalized to control samples.” left out

Notch signaling in hMSCs = assay: RBPjP-dependent Notch luciferase reporter in hMSCs cultured on Jag1 coated plates; assay type: cell-based, human
Description: This lentivirus expresses GFP allowing determination of infection efficiency after 24 hours and during multiple passages of the cells. […] A protocol for coating culture dishes with the recombinant Jag1 protein using 5 μg/ml, 10 μg/ml, and 15 μg/ml concentrations of Jag1 and 10 μg/ml concentration of IgG as controls was established. […] Next, to confirm that this Jag1 coating technology induced Notch signaling in hMSCs, hMSCs transfected with the RBPjP-dependent Notch luciferase reporter were cultured on 5 μg/ml, 10 μg/ml, and 15 μg/ml Jag1 and IgG coated plates.

hMSCs [4] = assay: Real-time RT-PCR of Notch target and stem cell regulator genes in hMSCs on Jag1 coated plates; assay type: cell-based, human; settings: Jag1 coated plates 10 μg/ml, passage 3 hMSCs, 24 hours
Description: (§3) To determine if Notch signaling can induce important regulators of stem cell maintenance, passage 3 hMSCs were cultured on Jag1 and IgG coated plates for 24 hours and isolated RNA for real-time RT-PCR analyses (FIG. 11B). […] Therefore, Jag1/Notch signaling regulated hMSC maintenance and expansion via this network of stem cell factors. Finally, the same culture system and passage 3 hMSCs were used to determine if Jag1 regulated the proliferation of hMSCs over a relatively short time interval. BrdU ELISA assays were performed for hMSCs cultured on Jag1 and IgG coated plates for 24 hours.

hMSCs [5] = assay: BrdU ELISA proliferation assay of hMSCs on Jag1 coated plates; assay type: cell-based, human; settings: passage 3 hMSCs, 24 hours, vs IgG
Description: as §3

Row | Molecule | abundance of the cleaved Notch2 (NICD2) (cleaved Notch2 (NICD2)) | cartilage nodule formation (limb-bud derived MSCs [1]; 1 μM DAPT, micromass culture, Alcian blue) | Agc1 expression (limb-bud derived MSCs [1]; DAPT 1 μM, day 7, real-time RT-PCR) | Sox9, Col2a1, and Agc1 expression (limb-bud derived MSCs [1]; DAPT 1 μM, first 3-5 days of culture, vs untreated cultures, real-time RT-PCR) | limb-bud MSC differentiation (limb-bud derived MSCs [1]; continuous DAPT 1 μM vs vehicle, chondrogenic, osteogenic and adipogenic cultures (FIG. 2A-2C)) | alkaline phosphatase staining (limb-bud derived MSCs [2]; osteogenic media) | osteoblastic differentiation of MSCs (limb-bud derived MSCs [2]; osteogenic media) | expression of osteoblast marker genes Col1a1, AP, and Oc (limb-bud derived MSCs [2]; real-time RT-PCR) | Oil Red-0 staining (limb-bud derived MSCs [3]; adipogenic media) | adipogenic differentiation of MSCs (limb-bud derived MSCs [3]; adipogenic media) | expression of the adipocyte marker gene Pparγ (limb-bud derived MSCs [3]; real-time RT-PCR) | hMSC growth, cell size, shape, cell survival on coated plates (Notch signaling in hMSCs; Jag1 coated plates) | luciferase activity of Notch reporter (Notch signaling in hMSCs; plates coated with 10 μg/ml Jag1, 5, 10 and 15 μg/ml compared, IgG control) | Oct4 expression compared to Sox2 and Nanog (hMSCs [4]) | Hes1 expression over controls (hMSCs [4]; vs IgG) | expression of Oct4, Sox2, and Nanog (hMSCs [4]; vs IgG) | increase of BrdU incorporation as compared to controls (hMSCs [5])
1 | C[C@H](NC(=O)Cc1cc(F)cc(F)c1)C(=O)N[C@H](C(=O)OC(C)(C)C)c1ccccc1 [DAPT] | reduce the abundance of the cleaved Notch2 (NICD2) | significantly enhanced cartilage nodule formation | significantly reduced | enhanced | enhances limb-bud MSC differentiation without biasing lineage determination | elevated alkaline phosphatase staining | enhanced normal osteoblastic differentiation | significant increase | elevated Oil Red-0 staining | enhanced normal adipogenic differentiation | increase |  |  |  |  |  | 
2 | Jag1: recombinant Jag1 protein, Notch ligand, coated on culture dishes to activate Notch signaling |  |  |  |  |  |  |  |  |  |  |  | no obvious changes in cell size, shape, or cell survival | maximal luciferase activity | only mildly enhanced | approximately 7 fold | induced the expression | more than 50%

Source: patent US20120294837A1, “METHODS OF ISOLATING AND CULTURING MESENCHYMAL STEM CELLS” (UNIVERSITY OF ROCHESTER, priority 2010, published 2012)
